Source: ChEMBL document CHEMBL1909046, “DrugMatrix in vitro pharmacology data”

How the values were obtained:
[1] = DRUGMATRIX: Tumor Necrosis Factor (TNF), Non-Selective radioligand binding (ligand: [125I] TNF-alpha); type: cell membranes, Membrane; conditions: u-937; Not Active = under 50% inhibition at 10 µM
[2] = DRUGMATRIX: Glutamate, NMDA, Phencyclidine radioligand binding (ligand: [3H] TCP); type: cell membranes, Rattus norvegicus, Wistar, Cerebral cortex, Membrane; conditions: Not Active = under 50% inhibition at 10 µM
[3] = biological target: T1, Cysteinyl leukotriene receptor 1 (Homo sapiens, UniProt Q9Y271); type: cell membranes, CHO-K1, Membrane; conditions: cho-k1; also: in other assays of this panel Not Active means under 50% inhibition at 10 µM
T1 sequence (Q9Y271 whole entry): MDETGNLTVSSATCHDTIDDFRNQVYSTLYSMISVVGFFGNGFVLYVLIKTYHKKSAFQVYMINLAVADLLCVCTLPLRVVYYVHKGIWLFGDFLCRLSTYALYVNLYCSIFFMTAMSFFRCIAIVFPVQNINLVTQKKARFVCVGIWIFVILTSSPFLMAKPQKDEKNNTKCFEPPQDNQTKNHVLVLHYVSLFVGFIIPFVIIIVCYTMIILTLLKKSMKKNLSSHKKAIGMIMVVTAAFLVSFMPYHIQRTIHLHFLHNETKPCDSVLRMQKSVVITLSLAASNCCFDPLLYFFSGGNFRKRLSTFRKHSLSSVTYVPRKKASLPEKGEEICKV

[4] = biological target: Platelet-activating factor receptor (Homo sapiens, UniProt P25105); type: tissue-based; also: in other assays of this panel Not Active means under 50% inhibition at 10 µM
Chain of Platelet-activating factor receptor (P25105 whole entry): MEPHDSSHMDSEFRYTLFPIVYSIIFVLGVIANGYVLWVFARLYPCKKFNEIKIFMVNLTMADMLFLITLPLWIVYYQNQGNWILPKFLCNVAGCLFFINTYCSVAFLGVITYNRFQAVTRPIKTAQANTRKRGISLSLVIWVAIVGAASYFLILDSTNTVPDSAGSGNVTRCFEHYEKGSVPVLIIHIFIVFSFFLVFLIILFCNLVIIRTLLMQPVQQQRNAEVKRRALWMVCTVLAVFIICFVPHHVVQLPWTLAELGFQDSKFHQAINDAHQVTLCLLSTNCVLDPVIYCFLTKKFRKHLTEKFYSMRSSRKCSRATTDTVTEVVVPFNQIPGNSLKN

Progesterone receptor = biological target: T2, Progesterone receptor (Bos taurus, UniProt Q690N0); test: DRUGMATRIX: Progesterone radioligand binding (ligand: [3H] R-5020); type: tissue-based, Uterus; conditions: Not Active = under 50% inhibition at 10 µM
T2 sequence (Q690N0 whole entry): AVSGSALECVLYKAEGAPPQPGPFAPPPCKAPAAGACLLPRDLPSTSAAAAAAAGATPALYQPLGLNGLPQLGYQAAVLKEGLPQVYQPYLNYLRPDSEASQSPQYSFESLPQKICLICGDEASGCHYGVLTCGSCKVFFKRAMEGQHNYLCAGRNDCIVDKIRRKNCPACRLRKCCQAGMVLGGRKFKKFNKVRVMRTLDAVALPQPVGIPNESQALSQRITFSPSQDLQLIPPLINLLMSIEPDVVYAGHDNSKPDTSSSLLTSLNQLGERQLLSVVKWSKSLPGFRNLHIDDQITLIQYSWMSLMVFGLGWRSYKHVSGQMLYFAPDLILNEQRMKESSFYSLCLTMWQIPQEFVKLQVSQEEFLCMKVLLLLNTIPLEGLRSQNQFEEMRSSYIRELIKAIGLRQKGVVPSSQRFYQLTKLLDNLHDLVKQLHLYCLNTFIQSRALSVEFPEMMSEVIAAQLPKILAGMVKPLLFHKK

Caspase-1 = biological target: T3, Caspase-1 (Homo sapiens, UniProt P29466); set-up: species or system Escherichia coli;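 also: Caspase-1 enzyme inhibition assay with a peptide substrate; in other assays of this panel Not Active means under 50% inhibition at 10 µM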
T3 sequence (P29466 whole entry): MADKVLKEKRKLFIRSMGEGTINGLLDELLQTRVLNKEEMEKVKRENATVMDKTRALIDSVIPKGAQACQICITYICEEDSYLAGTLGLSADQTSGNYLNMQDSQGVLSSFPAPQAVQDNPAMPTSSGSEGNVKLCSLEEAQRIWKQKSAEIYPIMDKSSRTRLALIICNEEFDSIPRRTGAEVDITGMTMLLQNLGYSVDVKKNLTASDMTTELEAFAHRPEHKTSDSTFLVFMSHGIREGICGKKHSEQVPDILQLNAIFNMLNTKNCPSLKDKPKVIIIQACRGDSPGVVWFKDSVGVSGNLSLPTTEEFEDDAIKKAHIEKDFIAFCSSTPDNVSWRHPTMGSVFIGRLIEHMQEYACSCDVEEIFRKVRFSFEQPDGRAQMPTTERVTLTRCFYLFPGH

Adenosine receptor A1 = biological target: T4, Adenosine receptor A1 (Homo sapiens, UniProt P30542); type: cell membranes, CHO, Membrane; conditions: cho;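 also: radioligand binding assay at the adenosine A1 receptor, with DPCPX serving as the labelled ligand; in other assays of this panel Not Active means under 50% inhibition at 10 µM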
T4 sequence (P30542 whole entry): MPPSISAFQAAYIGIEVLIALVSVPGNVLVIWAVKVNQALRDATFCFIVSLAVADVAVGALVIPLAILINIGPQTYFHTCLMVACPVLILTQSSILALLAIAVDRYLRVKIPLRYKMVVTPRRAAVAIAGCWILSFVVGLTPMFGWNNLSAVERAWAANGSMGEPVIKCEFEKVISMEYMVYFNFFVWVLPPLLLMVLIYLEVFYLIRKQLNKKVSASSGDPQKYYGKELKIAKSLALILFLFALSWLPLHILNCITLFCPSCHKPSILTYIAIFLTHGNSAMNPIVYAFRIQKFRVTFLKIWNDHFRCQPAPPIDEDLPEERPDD

COc1cc([C@@H]2c3cc4c(cc3[C@H](O)[C@H]3COC(=O)[C@H]23)OCO4)cc(OC)c1OC [PODOFILOX]
Not Active: IC50 [1] | Ki [1] | IC50 [2] | Ki [2] | IC50 [3] | IC50 [4] | IC50 (Progesterone receptor) | IC50 (Caspase-1) | IC50 (Adenosine receptor A1)

COC(=O)C[C@](O)(CCC(C)(C)O)C(=O)O[C@@H]1C(OC)=C[C@]23CCCN2CCc2cc4c(cc2[C@H]13)OCO4 [HARRINGTONINE]
Not Active: IC50 [1] | Ki [1] | IC50 [2] | Ki [2] | IC50 [3] | IC50 [4] | IC50 (Progesterone receptor) | IC50 (Caspase-1) | IC50 (Adenosine receptor A1)

CCCCCCNC(=O)n1cc(F)c(=O)[nH]c1=O [CARMOFUR]
Not Active: IC50 [1] | Ki [1] | IC50 [2] | Ki [2] | IC50 [3] | IC50 [4] | IC50 (Progesterone receptor) | IC50 (Caspase-1) | IC50 (Adenosine receptor A1)

O=c1[nH]cnc2c1ncn2[C@H]1CC[C@@H](CO)O1 [DIDANOSINE]
Not Active: IC50 [1] | Ki [1] | IC50 [2] | Ki [2] | IC50 [3] | IC50 [4] | IC50 (Progesterone receptor) | IC50 (Caspase-1) | IC50 (Adenosine receptor A1)

O=C(O)CO [GLYCOLIC ACID]
Not Active: IC50 [1] | Ki [1] | IC50 [2] | Ki [2] | IC50 [3] | IC50 [4] | IC50 (Progesterone receptor) | IC50 (Caspase-1) | IC50 (Adenosine receptor A1)

CC(C)Cc1ccc([C@H](C)C(=O)O)cc1 [DEXIBUPROFEN]
Not Active: IC50 [1] | Ki [1] | IC50 [2] | Ki [2] | IC50 [3] | IC50 [4] | IC50 (Progesterone receptor) | IC50 (Caspase-1) | IC50 (Adenosine receptor A1)

CC(C)(C#N)c1cc(Cn2cncn2)cc(C(C)(C)C#N)c1 [ANASTROZOLE]
Not Active: IC50 [1] | Ki [1] | IC50 [2] | Ki [2] | IC50 [3] | IC50 [4] | IC50 (Progesterone receptor) | IC50 (Caspase-1) | IC50 (Adenosine receptor A1)

O=C1c2ccccc2C(=O)C1c1ccccc1 [PHENINDIONE]
Not Active: IC50 [1] | Ki [1] | IC50 [2] | Ki [2] | IC50 [3] | IC50 [4] | IC50 (Progesterone receptor) | IC50 (Caspase-1) | IC50 (Adenosine receptor A1)

NC(=O)NC(=O)Cc1ccccc1 [PHENACEMIDE]
Not Active: IC50 [1] | Ki [1] | IC50 [2] | Ki [2] | IC50 [3] | IC50 [4] | IC50 (Progesterone receptor) | IC50 (Caspase-1) | IC50 (Adenosine receptor A1)

O=C(NCCN1CCOCC1)c1ccc(Cl)cc1 [MOCLOBEMIDE]
Not Active: IC50 [1] | Ki [1] | IC50 [2] | Ki [2] | IC50 [3] | IC50 [4] | IC50 (Progesterone receptor) | IC50 (Caspase-1) | IC50 (Adenosine receptor A1)

OC[C@H]1O[C@@H]2O[C@H]3[C@H](O)[C@@H](O)[C@@H](O[C@H]4[C@H](O)[C@@H](O)[C@@H](O[C@H]5[C@H](O)[C@@H](O)[C@@H](O[C@H]6[C@H](O)[C@@H](O)[C@@H](O[C@H]7[C@H](O)[C@@H](O)[C@@H](O[C@H]1[C@H](O)[C@H]2O)O[C@@H]7CO)O[C@@H]6CO)O[C@@H]5CO)O[C@@H]4CO)O[C@@H]3CO [ALFADEX]
Not Active: IC50 [1] | Ki [1] | IC50 [2] | Ki [2] | IC50 [3] | IC50 [4] | IC50 (Progesterone receptor) | IC50 (Caspase-1) | IC50 (Adenosine receptor A1)

ClC1=C(Cl)[C@]2(Cl)[C@@H]3[C@@H]4C[C@@H]([C@H]5O[C@@H]45)[C@@H]3[C@@]1(Cl)C2(Cl)Cl [DIELDRIN]
Not Active: IC50 [1] | Ki [1] | IC50 [2] | Ki [2] | IC50 [3] | IC50 [4] | IC50 (Progesterone receptor) | IC50 (Caspase-1) | IC50 (Adenosine receptor A1)

O=c1[nH]c2ccccc2c2ccccc12
Not Active: IC50 [1] | Ki [1] | IC50 [2] | Ki [2] | IC50 [3] | IC50 [4] | IC50 (Progesterone receptor) | IC50 (Caspase-1) | IC50 (Adenosine receptor A1)

CCC1(c2ccccc2)C(=O)NC(=O)NC1=O [PHENOBARBITAL]
Not Active: IC50 [1] | Ki [1] | IC50 [2] | Ki [2] | IC50 [3] | IC50 [4] | IC50 (Progesterone receptor) | IC50 (Caspase-1) | IC50 (Adenosine receptor A1)

Nc1ccc(C(=O)O)c(O)c1 [AMINOSALICYLIC ACID]
Not Active: IC50 [1] | Ki [1] | IC50 [2] | Ki [2] | IC50 [3] | IC50 [4] | IC50 (Progesterone receptor) | IC50 (Caspase-1) | IC50 (Adenosine receptor A1)
